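Growth conditions: 96-well plates. Treatment: test compound, 48 hours, 5 concentrations. Analysis: linear interpolation between bracketing concentrations; unreached endpoints set to highest concentration. At the GI50, growth is halved.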 Calls of active or inactive are those of the source. No stated cut-off is given here; in the data, active = GI50 up to about 1.1 µM and inactive = higher.
Experiments:
Test in all cases: growth of human tumour cells (NCI), 48 h
HL-60 = test system: HL-60
TK-10 = test system: TK-10
A498 = test system: A498
DMS-273 = test system: DMS-273
EKVX = test system: EKVX
HCT-15 = test system: HCT-15
MOLT-4 = test system: MOLT-4
LOX IMVI = test system: LOX IMVI
SF-539 = test system: SF-539
ACHN = test system: ACHN
SNB-78 = test system: SNB-78
UO-31 = test system: UO-31
U-251 = test system: U-251
SF-295 = test system: SF-295
CCRF-CEM = test system: CCRF-CEM
SF-268 = test system: SF-268
HOP-62 = test system: HOP-62
HOP-18 = test system: HOP-18
DLD-1 = test system: DLD-1
OVCAR-8 = test system: OVCAR-8
SN12C = test system: SN12C
786-0 = test system: 786-0
SW-620 = test system: SW-620
CAKI-1 = test system: CAKI-1
SK-OV-3 = test system: SK-OV-3
HT-29 = test system: HT-29
HCC 2998 = test system: HCC 2998
COLO 205 = test system: COLO 205
SR = test system: SR
KM12 = test system: KM12
KM-20L2 = test system: KM-20L2
NCI-H23 = test system: NCI-H23
DMS-114 = test system: DMS-114
RPMI-8226 = test system: RPMI-8226
OVCAR-3 = test system: OVCAR-3
M19-MEL = test system: M19-MEL
LXFL 529 = test system: LXFL 529
SK-MEL-5 = test system: SK-MEL-5
SK-MEL-2 = test system: SK-MEL-2
K562 = test system: K562
NCI-H522 = test system: NCI-H522
SNB-75 = test system: SNB-75
OVCAR-5 = test system: OVCAR-5
SNB-19 = test system: SNB-19
M14 = test system: M14
OVCAR-4 = test system: OVCAR-4
A549 = test system: A549
NCI-H226 = test system: NCI-H226
UACC-257 = test system: UACC-257
SK-MEL-28 = test system: SK-MEL-28
Malme-3M = test system: Malme-3M
UACC-62 = test system: UACC-62
HCT-116 = test system: HCT-116
IGROV-1 = test system: IGROV-1
NCI-H460 = test system: NCI-H460
XF498 = test system: XF498
HOP-92 = test system: HOP-92
RXF 393 = test system: RXF 393
MCF7 = test system: MCF7
NCI/ADR-RES = test system: NCI/ADR-RES

C/C(CN1C(=O)c2ccccc2C1=O)=N\NS(=O)(=O)c1ccc2ccccc2c1
GI50 (HL-60): > 100 µM (inactive)
GI50 (TK-10): > 100 µM (inactive)
GI50 (A498): > 100 µM (inactive)
GI50 (DMS-273): > 100 µM (inactive)
GI50 (EKVX): > 100 µM (inactive)
GI50 (HCT-15): > 100 µM
GI50 (MOLT-4): > 100 µM (inactive)
GI50 (LOX IMVI): > 100 µM (inactive)
GI50 (SF-539): > 100 µM (inactive)
GI50 (ACHN): > 100 µM (inactive)
GI50 (SNB-78): > 100 µM (inactive)
GI50 (UO-31): > 100 µM (inactive)
GI50 (U-251): > 100 µM (inactive)
GI50 (SF-295): > 100 µM (inactive)
GI50 (CCRF-CEM): > 100 µM (inactive)
GI50 (SF-268): 88.5 µM (inactive)
GI50 (HOP-62): > 100 µM (inactive)
GI50 (HOP-18): > 100 µM (inactive)
GI50 (DLD-1): > 100 µM (inactive)
GI50 (OVCAR-8): > 100 µM (inactive)
GI50 (SN12C): > 100 µM (inactive)
GI50 (786-0): > 100 µM (inactive)
GI50 (SW-620): > 100 µM (inactive)
GI50 (CAKI-1): > 100 µM (inactive)
GI50 (SK-OV-3): > 100 µM (inactive)
GI50 (HT-29): > 100 µM (inactive)
GI50 (HCC 2998): > 100 µM (inactive)
GI50 (COLO 205): > 100 µM (inactive)
GI50 (SR): > 100 µM (inactive)
GI50 (KM12): > 100 µM (inactive)
GI50 (KM-20L2): > 100 µM (inactive)
GI50 (NCI-H23): > 100 µM (inactive)
GI50 (DMS-114): > 100 µM (inactive)
GI50 (RPMI-8226): > 100 µM (inactive)
GI50 (OVCAR-3): > 100 µM (inactive)
GI50 (M19-MEL): > 100 µM (inactive)
GI50 (LXFL 529): > 100 µM (inactive)
GI50 (SK-MEL-5): > 100 µM (inactive)
GI50 (SK-MEL-2): > 100 µM (inactive)
GI50 (K562): > 100 µM (inactive)
GI50 (NCI-H522): 57.7 µM (inactive)
GI50 (SNB-75): 32.1 µM (inactive)
GI50 (OVCAR-5): > 100 µM (inactive)
GI50 (SNB-19): > 100 µM (inactive)
GI50 (M14): > 100 µM (inactive)
GI50 (OVCAR-4): > 100 µM (inactive)
GI50 (A549): > 100 µM (inactive)
GI50 (NCI-H226): > 100 µM (inactive)
GI50 (UACC-257): > 100 µM (inactive)
GI50 (SK-MEL-28): > 100 µM (inactive)
GI50 (Malme-3M): > 100 µM (inactive)
GI50 (UACC-62): > 100 µM (inactive)
GI50 (HCT-116): > 100 µM (inactive)
GI50 (IGROV-1): > 100 µM (inactive)
GI50 (NCI-H460): > 100 µM (inactive)

COc1ccc(/C=C/c2onc3c(=O)n(C)nc(-c4ccccc4)c23)cc1
GI50 (HL-60): > 100 µM (inactive)
GI50 (TK-10): > 100 µM (inactive)
GI50 (DMS-273): > 100 µM (inactive)
GI50 (EKVX): > 100 µM (inactive)
GI50 (XF498): 37 µM (inactive)
GI50 (HCT-15): > 100 µM
GI50 (MOLT-4): > 100 µM (inactive)
GI50 (LOX IMVI): > 100 µM (inactive)
GI50 (SF-539): 48.9 µM (inactive)
GI50 (ACHN): > 100 µM (inactive)
GI50 (UO-31): > 100 µM (inactive)
GI50 (U-251): > 100 µM (inactive)
GI50 (CCRF-CEM): > 100 µM (inactive)
GI50 (SF-268): > 100 µM (inactive)
GI50 (HOP-62): 89.3 µM (inactive)
GI50 (HOP-18): > 100 µM (inactive)
GI50 (DLD-1): > 100 µM (inactive)
GI50 (OVCAR-8): > 100 µM (inactive)
GI50 (SN12C): > 100 µM (inactive)
GI50 (786-0): > 100 µM (inactive)
GI50 (SW-620): > 100 µM (inactive)
GI50 (CAKI-1): 35.9 µM (inactive)
GI50 (SK-OV-3): > 100 µM (inactive)
GI50 (HT-29): 45 µM (inactive)
GI50 (COLO 205): > 100 µM (inactive)
GI50 (KM-20L2): > 100 µM (inactive)
GI50 (NCI-H23): > 100 µM (inactive)
GI50 (DMS-114): > 100 µM (inactive)
GI50 (RPMI-8226): > 100 µM (inactive)
GI50 (M19-MEL): > 100 µM (inactive)
GI50 (LXFL 529): > 100 µM (inactive)
GI50 (SK-MEL-5): > 100 µM (inactive)
GI50 (K562): > 100 µM (inactive)
GI50 (NCI-H522): 77.6 µM (inactive)
GI50 (HOP-92): 7.26 µM (inactive)
GI50 (SNB-19): > 100 µM (inactive)
GI50 (M14): > 100 µM (inactive)
GI50 (A549): > 100 µM (inactive)
GI50 (SK-MEL-28): > 100 µM (inactive)
GI50 (UACC-62): > 100 µM (inactive)
GI50 (HCT-116): > 100 µM (inactive)
GI50 (IGROV-1): > 100 µM (inactive)
GI50 (RXF 393): > 100 µM (inactive)
GI50 (NCI-H460): > 100 µM (inactive)

O=S(=O)(CCBr)CCBr
GI50 (HL-60): 2.59 µM (inactive)
GI50 (A498): 6.3 µM (inactive)
GI50 (DMS-273): 4.59 µM (inactive)
GI50 (XF498): < 0.01 µM (active)
GI50 (HCT-15): 2.64 µM
GI50 (MOLT-4): 2.58 µM (inactive)
GI50 (LOX IMVI): 7.67 µM (inactive)
GI50 (SF-539): 6.22 µM (inactive)
GI50 (UO-31): 30.8 µM (inactive)
GI50 (U-251): 15.7 µM (inactive)
GI50 (SF-295): 15.7 µM (inactive)
GI50 (CCRF-CEM): 2.96 µM (inactive)
GI50 (SF-268): 3.99 µM (inactive)
GI50 (HOP-62): 0.506 µM (active)
GI50 (HOP-18): 15 µM (inactive)
GI50 (DLD-1): 2.86 µM (inactive)
GI50 (OVCAR-8): 2.32 µM (inactive)
GI50 (SN12C): 9.02 µM (inactive)
GI50 (SW-620): 2.23 µM (inactive)
GI50 (CAKI-1): 5.3 µM (inactive)
GI50 (SK-OV-3): 19.3 µM (inactive)
GI50 (HT-29): 5.94 µM (inactive)
GI50 (HCC 2998): 6.95 µM (inactive)
GI50 (COLO 205): 3.21 µM (inactive)
GI50 (KM12): 13.9 µM (inactive)
GI50 (KM-20L2): 11.1 µM (inactive)
GI50 (NCI-H23): 6.52 µM (inactive)
GI50 (MCF7): 4.91 µM (inactive)
GI50 (DMS-114): 2.18 µM (inactive)
GI50 (RPMI-8226): 4.53 µM (inactive)
GI50 (OVCAR-3): 3.67 µM (inactive)
GI50 (M19-MEL): 2.83 µM (inactive)
GI50 (SK-MEL-5): 7.35 µM (inactive)
GI50 (SK-MEL-2): 11.3 µM (inactive)
GI50 (K562): 3.98 µM (inactive)
GI50 (NCI-H522): 1.48 µM (inactive)
GI50 (HOP-92): 6.21 µM (inactive)
GI50 (SNB-75): 12.8 µM (inactive)
GI50 (OVCAR-5): 13.7 µM (inactive)
GI50 (SNB-19): 17.6 µM (inactive)
GI50 (OVCAR-4): 9.57 µM (inactive)
GI50 (A549): 13.9 µM (inactive)
GI50 (NCI/ADR-RES): 2.17 µM (inactive)
GI50 (NCI-H226): 19.2 µM (inactive)
GI50 (UACC-257): 3.82 µM (inactive)
GI50 (SK-MEL-28): 2.67 µM (inactive)
GI50 (Malme-3M): 3.17 µM (inactive)
GI50 (UACC-62): 2.96 µM (inactive)
GI50 (HCT-116): 3.37 µM (inactive)
GI50 (IGROV-1): 5.42 µM (inactive)
GI50 (RXF 393): 2.17 µM (inactive)
GI50 (NCI-H460): 12 µM (inactive)

Reference: ChEMBL document CHEMBL1201862, “PubChem BioAssay data set” (2004)
